Values of other authors, collected in publication PMC5646416 (Journal of clinical pharmacy and therapeutics, 2017).

Settings: single-dose pharmacokinetic studies

Row | AUC higher in rs4149056 CC homozygotes than in rs4149056 TT homozygotes | SMILES
1 | 162–191% | O=C(O)C[C@H](O)C[C@H](O)/C=C/c1c(C2CC2)nc2ccccc2c1-c1ccc(F)cc1 [pitavastatin]
2 | 57–130% | CC[C@H](C)C(=O)O[C@H]1C[C@H](O)C=C2C=C[C@H](C)[C@H](CC[C@@H](O)C[C@@H](O)CC(=O)O)[C@H]21 [pravastatin]
3 | 62–117% | CC(C)c1nc(N(C)S(C)(=O)=O)nc(-c2ccc(F)cc2)c1/C=C/[C@@H](O)C[C@@H](O)CC(=O)O [rosuvastatin]
4 | 221% | CCC(C)(C)C(=O)O[C@H]1C[C@@H](C)C=C2C=C[C@H](C)[C@H](CC[C@@H](O)C[C@@H](O)CC(=O)O)[C@H]21 [simvastatin acid]
